We go through 42 compounds from US8071600B2, “Derivatives of 4-piperazin-1-yl-4-benzo[B]thiophene suitable for the treatment of CNS disorders” (Otsuka Pharmaceutical Co., Ltd., priority 2005, dated 2011).

Where a name gives a salt, the structure may show the parent alone.

T2 sequence (P61169 whole entry): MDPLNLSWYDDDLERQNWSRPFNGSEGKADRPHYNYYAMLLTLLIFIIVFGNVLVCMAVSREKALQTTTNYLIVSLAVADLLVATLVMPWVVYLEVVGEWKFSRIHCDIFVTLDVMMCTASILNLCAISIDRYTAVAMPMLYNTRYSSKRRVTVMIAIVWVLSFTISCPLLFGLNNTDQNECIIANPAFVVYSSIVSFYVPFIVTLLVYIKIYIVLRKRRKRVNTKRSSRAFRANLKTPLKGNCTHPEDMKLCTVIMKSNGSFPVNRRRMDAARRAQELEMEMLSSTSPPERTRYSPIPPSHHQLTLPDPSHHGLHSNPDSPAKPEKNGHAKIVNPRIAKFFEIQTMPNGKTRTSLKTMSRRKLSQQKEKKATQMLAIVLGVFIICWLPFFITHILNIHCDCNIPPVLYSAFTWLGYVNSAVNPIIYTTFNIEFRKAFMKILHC

The target of one data set is T1, Serotonin 5-HT2A receptor (Rattus norvegicus, UniProt P14842).
T1 construct: from tissue; host or cells: Wistar rat brain, frontal cortex membranes
T1 sequence (P14842 whole entry): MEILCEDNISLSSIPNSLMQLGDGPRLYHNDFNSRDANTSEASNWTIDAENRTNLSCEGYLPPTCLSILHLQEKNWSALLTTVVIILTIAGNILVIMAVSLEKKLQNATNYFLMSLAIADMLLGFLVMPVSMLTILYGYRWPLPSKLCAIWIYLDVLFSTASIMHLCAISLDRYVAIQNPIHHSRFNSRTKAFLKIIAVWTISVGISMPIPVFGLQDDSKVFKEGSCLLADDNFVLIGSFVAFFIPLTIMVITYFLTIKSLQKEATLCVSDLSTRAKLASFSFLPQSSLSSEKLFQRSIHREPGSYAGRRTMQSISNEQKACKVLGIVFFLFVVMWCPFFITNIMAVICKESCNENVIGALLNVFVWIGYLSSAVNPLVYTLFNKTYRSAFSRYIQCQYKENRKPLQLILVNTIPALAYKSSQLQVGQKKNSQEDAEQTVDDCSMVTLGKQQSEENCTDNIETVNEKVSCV
Briefly: Serotonin 5-HT2A receptor binding assay ([3H]-Ketanserin). Conditions: Serotonin 5-HT2A receptor binding test, rat frontal cortex membrane, Ki calculated from IC50 by Cheng-Prussoff formula. On the procedure:
2) Serotonin 5-HT2A Receptor Binding Assay
The assay was performed according to the method by Leysen J E et al. (Leysen J E, Niemegeers C J E, Van Nueten J M and Laduron P M. [3H] Ketanserin (R 41 468), a selective 3H-ligand for serotonin 2 receptor binding sites. Mol. Pharmacol., 1982, 21: 301-314).
Wistar male rats were decapitated, the brain was retrieved immediately and frontal cortex was taken out. It was homogenized in 0.25 M sucrose of a volume 10 times of the weight of the tissue using a Teflon glass homogenizer, and centrifuged at 4° C., 1,000×g for 10 minutes. The obtained supernatant was transferred to another centrifuge tube and suspended in 0.25 M sucrose of a volume 5 times of the weight of the tissue and the precipitate was centrifuged in the above-described condition. The obtained supernatant was combined with the supernatant obtained above and adjusted to a volume 40 times of the weight of the tissue with 50 mM Tris-hydrochloric acid buffer (pH 7.4), and centrifuged at 4° C., 35,000×g for 10 minutes. The obtained precipitate was suspended again in the above-described buffer of a volume 40 times of the weight of the tissue and centrifuged in the above-described condition. The obtained precipitate was suspended in the above-described buffer of a volume 20 times of the weight of the tissue and preserved by freezing at −85° C. till it was used for binding assay as a membrane specimen.
The binding assay was performed using 40 μl of the membrane specimen, 20 μl of [^3H]-Ketanserin (final concentration 1 to 3 nM), 20 μl of a test drug and 50 mM Tris-hydrochloric acid buffer (pH 7.4) so that the total amount was 200 μl (final dimethylsulfoxide concentration 1%). The reaction was performed at 37° C. for 20 minutes and terminated by conducting suction filtration with a cell harvester on a glass fiber filter plate.
The filter plate made of glass fiber was washed with 50 mM Tris-hydrochloric acid buffer (pH 7.4), and after dried, a microplate liquid scintillation cocktail was added and the radioactivity was measured with a microplate scintillation counter. Radioactivity in the presence of 10 μM spiperone was assumed as nonspecific binding.
(§1) IC50 value was calculated from concentration-dependent reaction using a non-linear analysis program. Ki value was calculated from IC50 value using Cheng-Prussoff formula.
A word on the Ki: it is the dissociation constant of the complex between target and ligand, obtained from inhibition or displacement. On to `CC1(C)C(=O)Nc2ccc(OCCCN3CCN(c4cccc5sccc45)CC3)cc21` [Example 1014], for which the Ki is 4.2 nM. Same read-out and setting: the same measure for `Cn1c(=O)oc2cc(OCCCN3CCN(c4cccc5sccc45)CC3)ccc21` [Example 1016]: 2.3 nM; for `O=C1CCCc2ccc(OCCCN3CCN(c4cccc5sccc45)CC3)cc2N1` [Example 1026]: 3.5 nM; for `O=C1CCOc2cc(OCCCN3CCN(c4cccc5sccc45)CC3)ccc2N1` [Example 1027]: 2 nM. For `CN1CC(=O)N(C)c2ccc(OCCCN3CCN(c4cccc5sccc45)CC3)cc2C1=O` [Example 1034], the Ki is 3.1 nM. Regarding `COc1cc(N2CCN(C(C)=O)CC2)cc(CO)c1OCCCN1CCN(c2cccc3sccc23)CC1` [Example 1084], the Ki was 1.4 nM.

A further data set concerns the target T2, Dopamine D2 receptor (Rattus norvegicus, UniProt P61169).
T2 construct: from tissue; host or cells: Wistar rat brain, corpus striatum membranes
Briefly: Dopamine D2 receptor binding assay ([3H]-raclopride). The conditions noted are these: Dopamine D2 receptor binding test, rat corpus striatum membrane, Ki calculated from IC50 by Cheng-Prussoff formula. How it is done: 1) Dopamine D2 Receptor Binding Assay
The assay was performed according to the method by Kohler et al. (Kohler C, Hall H, Ogren S O and Gawell L, Specific in vitro and in vivo binding of 3H-raclopride. A potent substituted benzamide drug with high affinity for dopamine D-2 receptors in the rat brain. Biochem. Pharmacol., 1985; 34: 2251-2259).
Wistar male rats were decapitated, the brain was retrieved immediately and corpus striatum was taken out. It was homogenized in 50 mM tris(hydroxymethyl)aminomethane (Tris)-hydrochloric acid buffer (pH 7.4) of a volume 50 times of the weight of the tissue using a homogenizer with a high-speed rotating blade, and centrifuged at 4° C., 48,000×g for 10 minutes. The obtained precipitate was suspended again in the above-described buffer of a volume 50 times of the weight of the tissue and after incubated at 37° C. for 10 minutes, centrifuged in the above-described condition. The obtained precipitate was suspended in 50 mM (Tris)-hydrochloric acid buffer (containing 120 mM NaCl, 5 mM KCl, 2 mM CaCl2, 1 mM MgCl2, pH 7.4) of a volume 25 times of the weight of the tissue and preserved by freezing at −85° C. till it was used for binding assay as a membrane specimen.
The binding assay was performed using 40 μl of the membrane specimen, 20 μl of [^3H]-raclopride (final concentration 1 to 2 nM), 20 μl of a test drug and 50 mM Tris-hydrochloric acid buffer (containing 120 mM NaCl, 5 mM KCl, 2 mM CaCl2, 1 mM MgCl2, pH 7.4) so that the total amount was 200 μl (final dimethylsulfoxide concentration 1%). The reaction was performed at room temperature for 1 hour and terminated by conducting suction filtration with a cell harvester on a glass fiber filter plate. The filter plate made of glass fiber was washed with 50 mM Tris-hydrochloric acid buffer (pH 7.4), and after dried, a microplate liquid scintillation cocktail was added and the radioactivity was measured with a microplate scintillation counter. Radioactivity in the presence of 10 μM (+)-butaclamol hydrochloride was assumed as nonspecific binding.
as §1
Consider `CC1(C)C(=O)Nc2ccc(OCCCN3CCN(c4cccc5sccc45)CC3)cc21` [Example 1014], for which the Ki was 3.3 nM.

`Cn1c(=O)oc2cc(OCCCN3CCN(c4cccc5sccc45)CC3)ccc21` [Example 1016]: the Ki is 2.2 nM. On the same count and under the same terms, to `O=C1CCCc2ccc(OCCCN3CCN(c4cccc5sccc45)CC3)cc2N1` [Example 1026] belongs 1.9 nM. On the same count and under the same terms, the same measure for `O=C1CCOc2cc(OCCCN3CCN(c4cccc5sccc45)CC3)ccc2N1` [Example 1027]: 1.9 nM; for `CN1CC(=O)N(C)c2ccc(OCCCN3CCN(c4cccc5sccc45)CC3)cc2C1=O` [Example 1034]: 2.1 nM; for `COc1cc(N2CCN(C(C)=O)CC2)cc(CO)c1OCCCN1CCN(c2cccc3sccc23)CC1` [Example 1084]: 0.1 nM.

Test system in another data set: not given
Assay: not given
Settings: not given
In general, melting point refers to the temperature, or range, at which the solid turns liquid. As for `CN1CNc2ccc(OCCCN3CCN(c4cccc5sccc45)CC3)cc2C1.Cl`, the melting point fell in the range of 203.1 to 204.4 °C. The same measure, in the same setting: the same measure for `COc1cc(NC=O)cc(C)c1OCCCN1CCN(c2cccc3sccc23)CC1.Cl`: 247.5 to 253 °C (dec.). On to `Cl.c1cc(N2CCN(CCCOc3ccc4c(c3)NCCO4)CC2)c2ccsc2c1`, for which the melting point fell in the range of 207.9 to 208.8 °C. Take `CN1CCOc2cc(OCCCN3CCN(c4cccc5sccc45)CC3)ccc21.Cl`: the melting point is 248.1 to 249.6 °C. Still for that read-out and setting: to `Cl.c1cc(N2CCN(CCCOc3ccc4c(c3)CCN4)CC2)c2ccsc2c1` belongs 222.4 to 223.9 °C; to `CC(=O)N1CCC(OCCCN2CCN(c3cccc4sccc34)CC2)CC1.Cl`, 208 to 210 °C. The same measure, in the same setting: to `CCS(=O)(=O)Nc1cc(C)c(OCCCN2CCN(c3cccc4sccc34)CC2)c(OC)c1.Cl` belongs 235.5 to 237.5 °C.

As for `CN(C)C(=O)Nc1cc(OCCCN2CCN(c3cccc4sccc34)CC2)n(C)n1.Cl`, the melting point fell in the range of 174 to 176.5 °C.

`CN(C)C(=O)Nc1cc(OCCCCN2CCN(c3cccc4sccc34)CC2)n(C)n1.Cl` displayed a melting point of 186 to 187.5 °C. `CCNC(=O)c1ccc(OCCCN2CCN(c3cccc4sccc34)CC2)nc1` (as salt: hydrochloride) [Example 26] had a melting point of 201.5 to 207.5 °C. Still for that read-out and setting: to `CCNC(=O)c1ccnc(OCCCN2CCN(c3cccc4sccc34)CC2)c1` (as salt: hydrochloride) [Example 32] belongs 140 to 141.5 °C; to `Cc1ccc(OCCCN2CCN(c3cccc4sccc34)CC2)cn1` (as salt: hydrochloride) [Example 40], 234 to 236 °C; to `CNC(=O)c1cc(OCCCN2CCN(c3cccc4sccc34)CC2)ncn1` (as salt: hydrochloride) [Example 58], 205 to 209.5 °C.

The compound `CCNC(=O)c1cc(OCCCN2CCN(c3cccc4sccc34)CC2)n(C)n1` (as salt: hydrochloride) [Example 62] gave a melting point of 210.5 to 214.5 °C.

On to `CCNC(=O)c1cc(OCCCN2CCN(c3cccc4sccc34)CC2)no1` (as salt: hydrochloride) [Example 72], for which the melting point is 219.5 to 222.5 °C (dec.). `CCNC(=O)c1csc(OCCCN2CCN(c3cccc4sccc34)CC2)n1` (as salt: hydrochloride) [Example 73] had a melting point of 151 to 153.5 °C. Same read-out and setting: to `c1cc(N2CCN(CCCCOc3ccncc3)CC2)c2ccsc2c1` (as salt: hydrochloride) [Example 80] belongs 183 to 185 °C; to `Cn1cnc2ccc(OCCCN3CCN(c4cccc5sccc45)CC3)cc2c1=O` (as salt: hydrochloride) [Example 95], 252.9 to 254.3 °C; to `O=C1Cc2ccc(OCCCCN3CCN(c4cccc5sccc45)CC3)cc2N1` (as salt: hydrochloride) [Example 127], 215 to 217 °C. In the case of `O=C1Nc2cc(OCCCCN3CCN(c4cccc5sccc45)CC3)ccc2CO1` (as salt: hydrochloride) [Example 133], the melting point was 253 to 258 °C (dec.). Same read-out and setting: to `CCN(CC)CCNC(=O)c1ccc(OCCCN2CCN(c3cccc4sccc34)CC2)cc1` (as salt: hydrochloride) [Example 160] belongs 229.5 to 232.5 °C; to `CNC(=O)c1ccc(OC)c(OCCCN2CCN(c3cccc4sccc34)CC2)c1` (as salt: hydrochloride) [Example 281], 163.5 to 165 °C; to `CCNCc1ccc(OCCCN2CCN(c3cccc4sccc34)CC2)cc1` (as salt: hydrochloride) [Example 286], 228 to 241 °C (dec.). As to `CN(C)Cc1ccc(OCCCN2CCN(c3cccc4sccc34)CC2)c(Cl)c1` (as salt: hydrochloride) [Example 303], the melting point is 259 °C (dec.). On to `CCN(C)Cc1ccc(OCCCN2CCN(c3cccc4sccc34)CC2)c(C)c1` (as salt: hydrochloride) [Example 307], for which the melting point was 256.5 °C (dec.). On the same count and under the same terms, the same measure for `CN1CCN(Cc2ccc(OCCCN3CCN(c4cccc5sccc45)CC3)cc2)CC1` (as salt: hydrochloride) [Example 314]: 261.5 °C (dec.). Same read-out and setting: the same measure for `CC(=O)Nc1ccc(OCCCN2CCN(c3cccc4sccc34)CC2)cc1` (as salt: hydrochloride) [Example 343]: 283 to 285 °C; for `CCS(=O)(=O)Nc1ccc(OCCCN2CCN(c3cccc4sccc34)CC2)cc1` (as salt: hydrochloride) [Example 345]: 174 to 176 °C. The same measure, in the same setting: the same measure for `COc1cc(NC=O)cc(C)c1OCCCN1CCN(c2cccc3sccc23)CC1` (as salt: hydrochloride) [Example 354]: 247.5 to 253 °C (dec.). As to `COc1cc(N2CCOC2=O)cc(C)c1OCCCN1CCN(c2cccc3sccc23)CC1` (as salt: hydrochloride) [Example 358], the melting point is 247.5 to 251 °C (dec.). In the case of `COc1cc(N2CCCC2=O)cc(CO)c1OCCCN1CCN(c2cccc3sccc23)CC1` (as salt: hydrochloride) [Example 359], the melting point lay within 144 to 145 °C. On the same count and under the same terms, to `CCN(CC)CCc1ccc(OCCCN2CCN(c3cccc4sccc34)CC2)cc1` (as salt: hydrochloride) [Example 368] belongs 224 to 232 °C (dec.); to `CN(C)CCc1ccc(OCCCN2CCN(c3cccc4sccc34)CC2)cc1` (as salt: hydrochloride) [Example 382], 238.5 °C (dec.); to `COc1cc(NC(=O)CN)cc(C)c1OCCCN1CCN(c2cccc3sccc23)CC1` (as salt: hydrochloride) [Example 1060], 268 °C (dec.). On the same count and under the same terms, to `COc1cc(N2CCOC2=O)cc(CO)c1OCCCN1CCN(c2cccc3sccc23)CC1` (as salt: hydrochloride) [Example 1071] belongs 224 to 226.5 °C (dec.). On the same count and under the same terms, the same measure for `COc1cc(N2CCCC2)cc(C)c1OCCCN1CCN(c2cccc3sccc23)CC1` (as salt: hydrochloride) [Example 1076]: 246.5 to 249 °C (dec.).
